The target of this test is T1, Cdc7 (BEV coexpressed huCDC7/DBF4) (Homo sapiens, UniProt O00311).
T1 construct: made in house; host or cells: BEV (baculovirus expression vector)
T1 sequence (O00311 whole entry): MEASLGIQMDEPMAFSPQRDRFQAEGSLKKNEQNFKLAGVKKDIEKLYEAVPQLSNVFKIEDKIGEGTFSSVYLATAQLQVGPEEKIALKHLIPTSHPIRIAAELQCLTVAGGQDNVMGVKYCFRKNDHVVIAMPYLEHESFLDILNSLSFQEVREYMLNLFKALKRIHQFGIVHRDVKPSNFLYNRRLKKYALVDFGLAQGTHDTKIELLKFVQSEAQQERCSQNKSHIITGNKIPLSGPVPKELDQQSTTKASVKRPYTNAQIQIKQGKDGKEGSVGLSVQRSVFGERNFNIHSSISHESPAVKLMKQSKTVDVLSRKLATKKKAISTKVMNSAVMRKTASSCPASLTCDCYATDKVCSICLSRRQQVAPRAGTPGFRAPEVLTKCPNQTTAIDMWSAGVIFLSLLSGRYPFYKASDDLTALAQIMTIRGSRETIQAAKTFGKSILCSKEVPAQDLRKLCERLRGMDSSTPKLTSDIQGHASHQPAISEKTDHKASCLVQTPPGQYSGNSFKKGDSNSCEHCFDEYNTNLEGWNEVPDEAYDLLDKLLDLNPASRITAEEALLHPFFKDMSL
T1 sequence (Q9UBU7 whole entry partner): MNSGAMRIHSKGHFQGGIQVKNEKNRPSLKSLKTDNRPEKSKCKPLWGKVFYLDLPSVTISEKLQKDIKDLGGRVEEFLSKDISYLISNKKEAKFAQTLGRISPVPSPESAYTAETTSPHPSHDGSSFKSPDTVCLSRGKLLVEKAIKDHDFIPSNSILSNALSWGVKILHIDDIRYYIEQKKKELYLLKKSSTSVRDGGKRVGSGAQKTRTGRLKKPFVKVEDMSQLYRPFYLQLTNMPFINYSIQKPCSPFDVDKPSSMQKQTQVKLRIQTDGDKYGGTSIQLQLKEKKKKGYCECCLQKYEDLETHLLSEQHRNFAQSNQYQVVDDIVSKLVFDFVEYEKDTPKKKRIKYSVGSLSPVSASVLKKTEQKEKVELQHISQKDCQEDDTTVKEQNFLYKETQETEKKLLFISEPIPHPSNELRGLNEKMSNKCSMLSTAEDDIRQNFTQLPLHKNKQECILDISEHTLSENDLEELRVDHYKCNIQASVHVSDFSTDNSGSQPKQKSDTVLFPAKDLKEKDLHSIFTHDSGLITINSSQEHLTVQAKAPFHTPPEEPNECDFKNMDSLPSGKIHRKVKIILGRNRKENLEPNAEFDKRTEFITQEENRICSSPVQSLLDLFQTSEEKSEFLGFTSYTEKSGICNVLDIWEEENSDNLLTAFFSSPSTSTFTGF
Briefly: Cdc7 enzyme inhibition assay ([33P]-ATP, biotinylated peptide substrate, FlashPlate). It is filed as biochemical. The settings on record: Ki generated from IC50 assuming ATP-competitive inhibition, apparent ATP Km 0.7 μM; 1 μM ATP, 1 hr. As for the experimental part:
This example describes the assays that may be used to identify compounds having kinase activity.
Cdc7 (BEV coexpressed huCDC7/DBF4) is prepared internally. Cdc7 assays are conducted as follows with final concentrations as listed. In 384-well v-bottom polypropylene plates, 6 μL compound (2% DMSO), is mixed with 6 μL of Cdc7 (2 ug/mL), and Jerini peptide substrate A-A11 (biotin-C6linker-TPSDSLIYDDGLS) (2 μM), followed by immediate initiation with 6 μL λ-[^33P]-ATP (1 μM, 20 mCi/μmol) using a reaction buffer comprising 25 mM HEPES, pH 7.5, 1 mM DTT, 10 mM MgCl2, 100 μM Na3VO4, 0.075 mg/ml Triton X-100. Reactions are quenched after 1 hr by the addition of 90 μL stop buffer (50 mM EDTA, 2M NaCl). 85 μL of the stopped reactions are transferred to 384-well streptavidin-coated plates (FlashPlate Plus, Perkin Elmer), incubated 30 minutes at room temperature and washed 3 times with 0.05% Tween-20/PBS using an ELX-405 automated plate washer (BioTek), and counted on a TopCount Scintillation Plate Reader (Packard). IC50 values are determined via non-linear regression fitting of enzyme inhibition data and corresponding Ki values are generated assuming ATP-competitive (equilibrium) inhibition and using the experimentally determined apparent ATP Km of 0.7 μM (as determined using the above assay condition, but varying ATP).
Table 1 depicts enzyme inhibition data (Ki) for exemplary compounds. In Table 1, “A” represents a K, of less than 10 nM, “B” represents a K, of between 10 nM and 100 nM, and “C” represents a Ki of greater than 100 nM.
As to “4-(2,5-dichlorobenzyl)-6-(1H-pyrrolo[2,3-b]pyridin-3-yl)phthalazin-1(2H)-one [Example 6]”, the Ki was greater than 100 nM.
To `Cn1ccc(Cc2n[nH]c(=O)c3ccc(-c4c[nH]c5ncccc45)cc23)n1` [Example 13, 4-[(1-methyl-1H-pyrazol-3-yl)methyl]-6-(1H-pyrrolo [2,3-b]pyridin-3-yl)phthalazin-1(2H)-one] belongs 10 to 100 nM; to `O=c1[nH]nc(Cc2ccncc2)c2cc(-c3c[nH]c4ncccc34)ccc12` [Example 5, 4-(pyridin-4-ylmethyl)-6-(1H-pyrrolo[2,3-b]pyridin-3-yl)phthalazin-1(2H)-one], less than 10 nM; to `O=c1[nH]nc(CC2CCNCC2)c2cc(-c3c[nH]c4ncccc34)ccc12` [Example 9, 4-(piperidin-4-ylmethyl)-6-(1H-pyrrolo[2,3-b]pyridin-3-yl)phthalazin-1(2H)-one], 10 to 100 nM.
To `O=c1[nH]nc(Cc2ccccc2)c2cc(-c3cn[nH]c3)ccc12` [Example 3, 4-benzyl-6-(1H-pyrazol-4-yl)phthalazin-1(2H)-one] belongs 10 to 100 nM.
As to `CN(C)c1ccc(Cc2n[nH]c(=O)c3ccc(-c4c[nH]c5ncccc45)cc23)cc1` [Example 11, 4-[4-(dimethylamino)benzyl]-6-(1H-pyrrolo[2,3-b]pyridin-3-yl)phthalazin-1(2H)-one], the Ki fell in the range of 10 to 100 nM.
To `CC(=O)Nc1ccc(Cc2n[nH]c(=O)c3ccc(-c4c[nH]c5ncccc45)cc23)cc1` [Example 12, N-(4-{[4-oxo-7-(1H-pyrrolo[2,3-b]pyridin-3-yl)-3,4-dihydrophthalazin-1-yl]methyl}phenyl)acetamide] belongs less than 10 nM.
The value for `O=c1[nH]nc(CC2CCCCN2)c2cc(-c3c[nH]c4ncccc34)ccc12` (stereo not shown) [Example 10, 4-(piperidin-2-ylmethyl)-6-(1H-pyrrolo[2,3-b]pyridin-3-yl)phthalazin-1(2H)-one] was greater than 100 nM.
To `O=c1[nH]nc(Cc2ccccc2)c2cc(-c3cccnc3)ccc12` [Example 4, 4-benzyl-6-(pyridin-3-yl)phthalazin-1(2H)-one] belongs greater than 100 nM; to `O=c1[nH]nc(Cc2ccccc2)c2cc(-c3c[nH]c4ncccc34)ccc12` [Example 1, 4-benzyl-6-(1H-pyrrolo[2,3-b]pyridin-3-yl)phthalazin-1(2H)-one], less than 10 nM; to `O=c1[nH]nc(Cc2cccnc2)c2cc(-c3c[nH]c4ncccc34)ccc12` [Example 8, 4-(pyridin-3-ylmethyl)-6-(1H-pyrrolo[2,3-b]pyridin-3-yl)phthalazin-1(2H)-one], less than 10 nM.
For `O=c1[nH]nc(CC2CCCNC2)c2cc(-c3c[nH]c4ncccc34)ccc12` (stereo not shown) [Example 7, 4-(piperidin-3-ylmethyl)-6-(1H-pyrrolo[2,3-b]pyridin-3-yl)phthalazin-1(2H)-one], the Ki is greater than 100 nM.
To `O=c1[nH]nc(Cc2ccccc2)c2cc(-c3ccncc3)ccc12` [Example 2, 4-benzyl-6-(pyridin-4-yl)phthalazin-1(2H)-one] belongs greater than 100 nM.

The values are drawn from patent publication US8383623B2, “Phthalazin-(2H)-one inhibitors of kinases” (Abbott Laboratories, priority 2010, dated 2013).
